# Laboratory results from US11214594B2, “Antimicrobial peptide having synergistic antibacterial effect with antibiotics on multidrug resistant bacteria, and use thereof” (priority 2016, dated 2022).
# Where a SMILES comes first, the peptide text is derived from it.
# Key:
# E. coli [1] = assay: microbe, parasite or virus in culture; type: cell-based, Escherichia coli
# In short: (§1)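 Each strain is brought to 2×10^6 CFU in nutrient-sufficient Mueller-Hinton medium and dispensed into wells. Peptide solutions, stepwise diluted 2:1 in the same medium, are then added. The minimal concentration preventing growth gives the MIC.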
# MDREC 1229 [2] = assay: microbe, parasite or virus in culture; type: cell-based, Escherichia coli
# In short: as §1
# MDREC 1238 = type: cell-based, Escherichia coli
# In short: as §1
# P. aeruginosa = assay: microbe, parasite or virus in culture; type: cell-based, Pseudomonas aeruginosa
# In short: as §1
# MDRPA 2002 = type: cell-based, Pseudomonas aeruginosa
# In short: as §1
# MDRPA 2003 = type: cell-based, Pseudomonas aeruginosa
# In short: as §1
# MDRST 8007 = assay: Minimal inhibitory concentration (MIC), single agent; type: cell-based, Salmonella typhimurium; conditions: agent alone
# In short: as §1
# B. subtilis = assay: microbe, parasite or virus in culture; type: cell-based, Bacillus subtilis
# In short: as §1
# S. epidermidis = assay: microbe, parasite or virus in culture; type: cell-based, Staphylococcus epidermidis
# In short: as §1
# S. aureus = assay: microbe, parasite or virus in culture; type: cell-based, Staphylococcus aureus
# In short: as §1
# MRSA 3114 = type: cell-based, Staphylococcus aureus; conditions: 3114
# In short: as §1
# MRSA 3126 = type: cell-based, Staphylococcus aureus; conditions: 3126
# In short: as §1
# E. coli [3] = assay: MIC of antibiotic during combined treatment with antimicrobial peptide; type: cell-based, Escherichia coli; conditions: for Antibiotic MIC, Erythromycin / Antibiotic MIC, Linezolid / Antibiotic MIC, Vancomycin: E. coli
# In short: (§2)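 Checkerboard-type MIC of peptide–antibiotic mixtures in MH medium: the antibiotic was serially diluted in MH medium and added to wells, then the reversed arrangement was also tested.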
# MDREC 1229 [4] = assay: as above; type: cell-based, Escherichia coli
# In short: (§3)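 Strains in MH medium at 2×10^6 CFU/ml were mixed with peptide diluted stepwise (2:1) from its MIC, then antibiotic dilutions in MH medium were added to give the antibiotic MIC. The reversed set-up, peptide titrated against fixed antibiotic, gave the peptide MIC.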
# A. baumannii = assay: as above; type: cell-based, Acinetobacter baumannii; conditions: for Antibiotic MIC, Erythromycin / Antibiotic MIC, Linezolid / Antibiotic MIC, Vancomycin: A. baumannii
# In short: as §2
# MDRAB 12035 = assay: as above; type: cell-based, Acinetobacter baumannii
# In short: as §3
# [5] = peptide treatment concentration 1 μg/ml
# [6] = peptide treatment concentration 2 μg/ml
# [7] = peptide treatment concentration 4 μg/ml
# [8] = peptide treatment concentration 6 μg/ml
# [9] = peptide treatment concentration 8 μg/ml
# [10] = peptide treatment concentration 16 μg/ml
# [11] = peptide treatment concentration 32 μg/ml
# [12] = peptide treatment concentration 64 μg/ml
# [13] = combined with peptide at 1 μg/ml
# [14] = combined with peptide at 2 μg/ml
# [15] = combined with peptide at 4 μg/ml
# [16] = combined with peptide at 6 μg/ml
# [17] = combined with peptide at 8 μg/ml
# [18] = combined with peptide at 16 μg/ml
# [19] = combined with peptide at 32 μg/ml
# [20] = combined with peptide at 64 μg/ml
smiles,measurement,setting,value
"CC[C@H](C)[C@H](NC(=O)[C@H](CCCCN)NC(=O)[C@H](Cc1c[nH]c2ccccc12)NC(=O)[C@@H](N)CCCNC(=N)N)C(=O)N[C@@H](Cc1ccccc1)C(=O)N[C@@H](CCCCN)C(=O)N[C@@H](CCCCN)C(=O)N[C@H](C(=O)N1CCC[C@H]1C(=O)N[C@@H](CCCCN)C(=O)N[C@@H](CC(C)C)C(=O)N[C@@H](CC(C)C)C(=O)N[C@@H](Cc1c[nH]cn1)C(=O)N[C@@H](CO)C(=O)N[C@@H](CC(C)C)C(=O)N[C@@H](CCCCN)C(=O)N[C@@H](CCCCN)C(=O)N[C@@H](Cc1ccccc1)C(N)=O)[C@@H](C)CC [PapMA-8, RWK IFK KIP KLL HSL KKF-NH2] (H-RWKIFKKIPKLLHSLKKF-NH2; N-terminus assumed)",Minimal inhibitory concentration MIC,E. coli [1]; 16 h,32 mg/L
same,Antibacterial activity relative to PapMA-1,E. coli [1]; E. coli,at least twice as high
same,Minimal inhibitory concentration MIC,MDREC 1229 [2],64 mg/L
same,Minimal inhibitory concentration MIC,MDREC 1238,64 mg/L
same,Minimal inhibitory concentration MIC,P. aeruginosa,16 mg/L
same,Antibacterial activity (in words),P. aeruginosa; P. aeruginosa and S. typhimurium,significantly increased
same,Minimal inhibitory concentration MIC,MDRPA 2002,16 mg/L
same,Minimal inhibitory concentration MIC,MDRPA 2003,16 mg/L
same,Minimal inhibitory concentration MIC,MDRST 8007,64 mg/L
same,Minimal inhibitory concentration MIC,B. subtilis,>128 mg/L
same,Minimal inhibitory concentration MIC,S. epidermidis,>128 mg/L
same,Minimal inhibitory concentration MIC,S. aureus,>128 mg/L
same,Minimal inhibitory concentration MIC,MRSA 3114,>128 mg/L
same,Minimal inhibitory concentration MIC,MRSA 3126,>128 mg/L
same,Synergistic effect of antibacterial activity with existing antibiotics compared with PapMA-1,E. coli [3]; E. coli and MDREC1229,higher level than the PapMA-1 peptide
same,"Antibiotic MIC, Erythromycin",E. coli [3]; erythromycin combined with peptide at 1 μg/ml,128 mg/L
same,"Antibiotic MIC, Erythromycin",E. coli [3]; erythromycin combined with peptide at 2 μg/ml,64 mg/L
same,"Antibiotic MIC, Erythromycin",E. coli [3]; erythromycin combined with peptide at 4 μg/ml,8 mg/L
same,"Antibiotic MIC, Erythromycin",E. coli [3]; erythromycin combined with peptide at 6 μg/ml,4 mg/L
same,"Antibiotic MIC, Erythromycin",E. coli [3]; erythromycin combined with peptide at 8 μg/ml,0.5 mg/L
same,"Antibiotic MIC, Erythromycin",E. coli [3]; erythromycin combined with peptide at 16 μg/ml,0.25 mg/L
same,"Antibiotic MIC, Erythromycin",E. coli [3]; erythromycin combined with peptide at 32 μg/ml,0 mg/L
same,"Antibiotic MIC, Erythromycin",E. coli [3]; erythromycin combined with peptide at 64 μg/ml,0 mg/L
same,"Antibiotic MIC, Linezolid",E. coli [3]; linezolid combined with peptide at 1 μg/ml,>128 mg/L
same,"Antibiotic MIC, Linezolid",E. coli [3]; linezolid combined with peptide at 2 μg/ml,>128 mg/L
same,"Antibiotic MIC, Linezolid",E. coli [3]; linezolid combined with peptide at 4 μg/ml,128 mg/L
same,"Antibiotic MIC, Linezolid",E. coli [3]; linezolid combined with peptide at 6 μg/ml,32 mg/L
same,"Antibiotic MIC, Linezolid",E. coli [3]; linezolid combined with peptide at 8 μg/ml,8 mg/L
same,"Antibiotic MIC, Linezolid",E. coli [3]; linezolid combined with peptide at 16 μg/ml,2 mg/L
same,"Antibiotic MIC, Linezolid",E. coli [3]; linezolid combined with peptide at 32 μg/ml,0 mg/L
same,"Antibiotic MIC, Linezolid",E. coli [3]; linezolid combined with peptide at 64 μg/ml,0 mg/L
same,"Antibiotic MIC, Vancomycin",E. coli [3]; vancomycin combined with peptide at 1 μg/ml,>128 mg/L
same,"Antibiotic MIC, Vancomycin",E. coli [3]; vancomycin combined with peptide at 2 μg/ml,>128 mg/L
same,"Antibiotic MIC, Vancomycin",E. coli [3]; vancomycin combined with peptide at 4 μg/ml,64 mg/L
same,"Antibiotic MIC, Vancomycin",E. coli [3]; vancomycin combined with peptide at 6 μg/ml,32 mg/L
same,"Antibiotic MIC, Vancomycin",E. coli [3]; vancomycin combined with peptide at 8 μg/ml,16 mg/L
same,"Antibiotic MIC, Vancomycin",E. coli [3]; vancomycin combined with peptide at 16 μg/ml,2 mg/L
same,"Antibiotic MIC, Vancomycin",E. coli [3]; vancomycin combined with peptide at 32 μg/ml,0 mg/L
same,"Antibiotic MIC, Vancomycin",E. coli [3]; vancomycin combined with peptide at 64 μg/ml,0 mg/L
same,"Antibiotic MIC, Erythromycin",MDREC 1229 [4]; [5],>128 mg/L
same,"Antibiotic MIC, Linezolid",MDREC 1229 [4]; [5],>128 mg/L
same,"Antibiotic MIC, Vancomycin",MDREC 1229 [4]; [5],>128 mg/L
same,"Antibiotic MIC, Erythromycin",MDREC 1229 [4]; [6],64 mg/L
same,"Antibiotic MIC, Linezolid",MDREC 1229 [4]; [6],>128 mg/L
same,"Antibiotic MIC, Vancomycin",MDREC 1229 [4]; [6],>128 mg/L
same,"Antibiotic MIC, Erythromycin",MDREC 1229 [4]; [7],8 mg/L
same,"Antibiotic MIC, Linezolid",MDREC 1229 [4]; [7],128 mg/L
same,"Antibiotic MIC, Vancomycin",MDREC 1229 [4]; [7],>128 mg/L
same,"Antibiotic MIC, Erythromycin",MDREC 1229 [4]; [8],4 mg/L
same,"Antibiotic MIC, Linezolid",MDREC 1229 [4]; [8],32 mg/L
same,"Antibiotic MIC, Vancomycin",MDREC 1229 [4]; [8],>128 mg/L
same,"Antibiotic MIC, Erythromycin",MDREC 1229 [4]; [9],1 mg/L
same,"Antibiotic MIC, Linezolid",MDREC 1229 [4]; [9],32 mg/L
same,"Antibiotic MIC, Vancomycin",MDREC 1229 [4]; [9],32 mg/L
same,"Antibiotic MIC, Erythromycin",MDREC 1229 [4]; [10],0.5 mg/L
same,"Antibiotic MIC, Linezolid",MDREC 1229 [4]; [10],16 mg/L
same,"Antibiotic MIC, Vancomycin",MDREC 1229 [4]; [10],16 mg/L
same,"Antibiotic MIC, Erythromycin",MDREC 1229 [4]; [11],0.125 mg/L
same,"Antibiotic MIC, Linezolid",MDREC 1229 [4]; [11],8 mg/L
same,"Antibiotic MIC, Vancomycin",MDREC 1229 [4]; [11],8 mg/L
same,"Antibiotic MIC, Erythromycin",MDREC 1229 [4]; [12],0 mg/L
same,"Antibiotic MIC, Linezolid",MDREC 1229 [4]; [12],0 mg/L
same,"Antibiotic MIC, Vancomycin",MDREC 1229 [4]; [12],0 mg/L
same,Synergistic effect of antibacterial activity with existing antibiotics compared with PapMA-1,A. baumannii; A. baumannii and MDRAB 12035,higher level than the PapMA-1 peptide
same,"Antibiotic MIC, Erythromycin",A. baumannii; [13],32 mg/L
same,"Antibiotic MIC, Linezolid",A. baumannii; [13],>128 mg/L
same,"Antibiotic MIC, Vancomycin",A. baumannii; [13],>128 mg/L
same,"Antibiotic MIC, Erythromycin",A. baumannii; [14],8 mg/L
same,"Antibiotic MIC, Linezolid",A. baumannii; [14],64 mg/L
same,"Antibiotic MIC, Vancomycin",A. baumannii; [14],>128 mg/L
same,"Antibiotic MIC, Erythromycin",A. baumannii; [15],4 mg/L
same,"Antibiotic MIC, Linezolid",A. baumannii; [15],32 mg/L
same,"Antibiotic MIC, Vancomycin",A. baumannii; [15],32 mg/L
same,"Antibiotic MIC, Erythromycin",A. baumannii; [16],4 mg/L
same,"Antibiotic MIC, Linezolid",A. baumannii; [16],16 mg/L
same,"Antibiotic MIC, Vancomycin",A. baumannii; [16],16 mg/L
same,"Antibiotic MIC, Erythromycin",A. baumannii; [17],0.25 mg/L
same,"Antibiotic MIC, Linezolid",A. baumannii; [17],4 mg/L
same,"Antibiotic MIC, Vancomycin",A. baumannii; [17],8 mg/L
same,"Antibiotic MIC, Erythromycin",A. baumannii; [18],0.125 mg/L
same,"Antibiotic MIC, Linezolid",A. baumannii; [18],1 mg/L
same,"Antibiotic MIC, Vancomycin",A. baumannii; [18],4 mg/L
same,"Antibiotic MIC, Erythromycin",A. baumannii; [19],0 mg/L
same,"Antibiotic MIC, Linezolid",A. baumannii; [19],0 mg/L
same,"Antibiotic MIC, Vancomycin",A. baumannii; [19],0 mg/L
same,"Antibiotic MIC, Erythromycin",A. baumannii; [20],0 mg/L
same,"Antibiotic MIC, Linezolid",A. baumannii; [20],0 mg/L
same,"Antibiotic MIC, Vancomycin",A. baumannii; [20],0 mg/L
same,Erythromycin MIC during combined treatment with peptide,MDRAB 12035; [5],32 mg/L
same,Linezolid MIC during combined treatment with peptide,MDRAB 12035; [5],>128 mg/L
same,Vancomycin MIC during combined treatment with peptide,MDRAB 12035; [5],>128 mg/L
same,Erythromycin MIC during combined treatment with peptide,MDRAB 12035; [6],32 mg/L
same,Linezolid MIC during combined treatment with peptide,MDRAB 12035; [6],>128 mg/L
same,Vancomycin MIC during combined treatment with peptide,MDRAB 12035; [6],>128 mg/L
same,Erythromycin MIC during combined treatment with peptide,MDRAB 12035; [7],16 mg/L
same,Linezolid MIC during combined treatment with peptide,MDRAB 12035; [7],64 mg/L
same,Vancomycin MIC during combined treatment with peptide,MDRAB 12035; [7],64 mg/L
same,Erythromycin MIC during combined treatment with peptide,MDRAB 12035; [8],8 mg/L
same,Linezolid MIC during combined treatment with peptide,MDRAB 12035; [8],32 mg/L
same,Vancomycin MIC during combined treatment with peptide,MDRAB 12035; [8],32 mg/L
same,Erythromycin MIC during combined treatment with peptide,MDRAB 12035; [9],4 mg/L
same,Linezolid MIC during combined treatment with peptide,MDRAB 12035; [9],16 mg/L
same,Vancomycin MIC during combined treatment with peptide,MDRAB 12035; [9],8 mg/L
same,Erythromycin MIC during combined treatment with peptide,MDRAB 12035; [10],2 mg/L
same,Linezolid MIC during combined treatment with peptide,MDRAB 12035; [10],4 mg/L
same,Vancomycin MIC during combined treatment with peptide,MDRAB 12035; [10],4 mg/L
same,Erythromycin MIC during combined treatment with peptide,MDRAB 12035; [11],1 mg/L
same,Linezolid MIC during combined treatment with peptide,MDRAB 12035; [11],2 mg/L
same,Vancomycin MIC during combined treatment with peptide,MDRAB 12035; [11],2 mg/L
same,Erythromycin MIC during combined treatment with peptide,MDRAB 12035; [12],0 mg/L
same,Linezolid MIC during combined treatment with peptide,MDRAB 12035; [12],0 mg/L
same,Vancomycin MIC during combined treatment with peptide,MDRAB 12035; [12],0 mg/L
